The values that follow come from publication PMC6196658, “Activity of Thioallyl Compounds From Garlic Against Giardia duodenalis Trophozoites and in Experimental Giardiasis” (Frontiers in Cellular and Infection Microbiology, 2018).

The test system of data set [1] is G. duodenalis trophozoites. Put plainly: In vitro susceptibility, trypan blue exclusion (TBE). It counts as cell-based, Giardia duodenalis (WB strain). The note with it: 24 h exposure. The method, then:
G. duodenalis trophozoites from the WB strain (ATCC # 30957) were axenically cultured in modified Diamond's TYI-S-33 medium (Keister, [1983]) without bile at 37°C. Cell harvests were carried out by chilling flasks at the log phase of growth reached after 72–96 h routine subcultures. Detached trophozoites were either directly counted in a haemocytometer or washed 3 times with phosphate buffer saline (PBS) prior to counting and the cell number was adjusted as required in the assays.
When complete TYI-S-33 medium (final cysteine concentration = 12.4 mM) was used, it was no older than 10 days to avoid cysteine oxidation. […] Parasites were harvested and counted and trophozoite's viability was determined by physiological methods to determine the growth capacity of trophozoites after drug exposure (subculture in liquid medium SCLM)] or trophozoite and membrane integrity [direct cell count (DCC) and trypan blue exclusion (TBE), respectively]. […] All these protocols have been described elsewhere (Argüello-García et al., [2004]) except that DCC values were calculated from total cell numbers of compound-exposed trophozoites divided by the initial trophozoites' inoculum (1 × 10^6) and TBE was performed by incubating PBS-washed parasites in a trypan blue solution (0.4% [w/v] final concentration) for 5 min at room temperature followed by microscopic count of “stained” (non-viable) parasites. […]

The subject of data set [2] is thiol groups exposed in G. duodenalis trophozoite proteins. Put plainly: Thiol-modifying activity (inhibition of thiol-DTNB complexes). Particulars: 100 μg soluble trophozoite protein, 10 min 37°C, DTNB 412 nm. The class given is biochemical, Giardia duodenalis. The method, then: The technique reported by Lawson and Wang ([1993]) was followed. In these assays trophozoites were collected from 60 mL flasks, washed 3 times with PBS and resuspended in 500 μL PBS containing a 1:12.5 dilution of a commercial mixture of protease inhibitors (Complete^TM, Roche Diagnostics GmbH, Indianapolis, IN, USA) and lysed by sonication at 12 microns/60% amplitude (Ultrasonic apparatus Sonic UVX1130PB). Soluble proteins were recovered by centrifugation at 15,400 × g for 30 min at 4°C and protein concentration was determined by the Bradford technique. These samples were adjusted to a concentration of 1 mg/mL. Reactions were carried out in 1.5 mL microcentrifuge tubes with a mixture of 100 μg protein (100 μL) and NaH2PO4 45 mM pH 7.0 mM (800 μL) to which increasing volumes of TACs stocks or a positive control with the thiol derivatizing agent MMTS prepared at 50 mM in the same buffer, were added and total volume was adjusted to 1 mL. After incubation for 10 min at 37°C, 100 μL of 1.5 mM dithionitrobenzoic acid (DTNB, Ellman's reagent) were added to each tube and following incubation for 10 min at room temperature the absorbances (yellow solutions) were recorded at 412 nm (Smart Spec 3000^TM, Bio-Rad, Hercules, CA, USA). A calibration curve was obtained using increasing volumes (0–100 μL) of 15.5 mM cysteine instead protein extracts and the maximal blocking concentration (MBC) corresponding to a complete absence of thiol-DTNB complexes produced by TACs were calculated using the least-square method (Microsoft Excel^TM).

The subject of data set [3] is cysteine protease activities in trophozoite lysates. Put plainly: Proteolytic activity assay (gelatin zymogram). The class given is biochemical, Giardia duodenalis. Particulars: 3.5 mM; bands 110, 60, 75 and 25 kDa. The method, then: Trophozoite lysates were prepared as mentioned above except that cell lysis was carried out by sonication in 1.5 mL microcentrifuge tubes under ice bath using eight 15-s pulses at 80% amplitude with resting periods of 30 s (Ultrasonic Processor mod. CV19). Protein concentration was adjusted to 2 mg/mL and aliquoted in 25 μL fractions that were incubated for 30 min room temperature with 2–5 μL stock solutions of representative TACs (ALC, DADS, and AM). The reaction mixtures were diluted in Laemmli's sample buffer, loaded in wells of 10% acrylamide-02% gelatin slab gels and these were electrophoretically analyzed using 80 V/4°C. After this, gels were incubated in a solution of triton X-100 2.5% (v/v) in water for 1 h and washed 3 times with distilled water. Bands with proteolytic activity were detected as follows: gels were incubated in acetate buffer pH 5.5 with 1 mM DTT for 16 h at 37°C under constant stirring, washed 3 times with distilled water and stained with Coomassie blue (BioRad) for 2 h at 37°C under constant stirring. Finally, gels were washed with distilled water and incubated with a solution of 5% acetic acid/40% methanol (v/v). Gel images were documented with a UVP High Performance Ultraviolet Transilluminator and software Launch DocItLS.

The subject of data set [4] is Plasmodium berghei. Also noted: method as in Coppi et al., 2006. Particulars: mice, ref Coppi et al., 2006, cited from earlier work.
The conditions of data set [5]: mouse, no reference given; cited from earlier work.
Data set [6] in a line: Storage stability of allicin. The note with it: 1.5% (w/v) in water, 1 mL aliquots at −70°C.
Experimental: For stabilization and storage of ALC, the oily product was resuspended in water at 1.5% (w/v) and kept in 1 mL aliquots at −70°C until analyzed and used.

SMILES strings stand for the structures. Where “and” joins values, the source holds several entries; their conditions need not be identical. Equal values may be shown once. Read-outs that look alike come from different tables or passages of the source.

With `C=CCS[S+]([O-])CC=C` (centres unmarked) [ALC, diallyl thiosulfinate], the “MLC (mM) ±SD” value in data set [1] is 1.12 mM and 1.127 ± 0.05 mM. Further, half-maximal inhibition in data set [1] (Giardia duodenalis) (IC50) required 405 ± 38 µM. In data set [2], the “MBC (maximal blocking concentration) ± SD” value was 93.8 mmol/mg protein and 93.84 ± 12.8 mmol/mg protein. Also, the “effect on proteolytic bands in zymogram” value in data set [3] was “strongly inhibited”. The mortality entry in data set [4] (4 daily doses of 8 mg/kg intravenously) and in data set [4] (4 daily doses of 9 mg/kg orally) was “markedly reduced mortality” throughout. In addition, the oral lethality in data set [5] is recorded as 300 mg/kg. Besides, the “time of retained full activity on storage” value in data set [6] was “up to 6 months”.

A word on the IC50: it is the concentration that inhibits the measured activity by half. Low values mean greater potency in that assay, high ones weaker potency in that assay.
